In PubChem BioAssay (NCI) one finds TGI and GI50 data, which are given here for 22 molecules.

Values joined by “and” are separate entries in the source; they are usually repeats but may differ in a detail not shown here. Identical values can stand only once.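 48-hour exposure; five concentrations; linearly interpolated endpoints. GI50 = concentration required for 50% inhibition of growth. The concentration for full growth arrest is given as TGI.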

Common to all, as to test: NCI tumour cell line growth inhibition, 48 h
Experiment [1] has as its system HCT-116 colon.
For experiment [2], the system named is OVCAR-8 ovarian.
Experiment [3] deals with SK-MEL-28 melanoma.
Experiment [4] concerns SNB-75 CNS.
In experiment [5] the test system is SW-620 colon.
Experiment [6] concerns TK-10 renal.
Experiment [7] concerns U251 CNS.
For experiment [8], the system named is UACC-257 melanoma.
For experiment [9], the system named is UO-31 renal.
Experiment [10] has as its system SR leukemia.

Turning to `COc1cc(-c2oc3c(OC)c(OC)cc(O)c3c(=O)c2OC)ccc1O`, the TGI in experiment [1] was over 100 µM; in experiment [2], over 50 µM; in experiment [3] it was over 100 µM; in experiment [4], 8.54 µM and > 5 µM; in experiment [5] it was over 100 µM; in experiment [6], 22.8 µM and 40.2 µM. Moreover, the TGI in [7], in experiment [8] and in experiment [9] was over 100 µM each time. Further, the GI50 is > 100 µM and 20 µM in experiment [3]; 1.7 µM and > 5 µM in [4]; > 100 µM and 37.8 µM in experiment [5]; 5.97 µM and 12.7 µM in experiment [7]; 3.88 µM and 8.21 µM in experiment [9].

For the molecule `CCC(C(=O)[O-])C(=O)[O-].CCC(C(=O)[O-])C(=O)[O-].N.N.NCCCCCN.[Pt+4].[Pt+4]`, the GI50 in experiment [1], in [2], in [3], in experiment [4], in experiment [5] and in experiment [6] was over 100 µM each time. The GI50 in [7], in experiment [8] and in [9] was over 100 µM throughout. In addition, the TGI in experiment [1], in [2], in [3], in [4], in experiment [5] and in experiment [6] was over 100 µM in each case. The TGI in experiment [7], in [8] and in [9] was over 100 µM throughout.

For the molecule `NC(=O)c1csc(C2C=CC(CO)O2)n1` (stereo unspecified), the TGI in experiment [1], in [2], in experiment [3], in experiment [5], in experiment [6] and in experiment [7] was over 100 µM throughout. Further, the TGI in [8] and in experiment [9] was over 100 µM in each case.

On to `O=C1CC2CCCCC2=C1O` (stereo unspecified), for which the TGI in [1], in experiment [2], in [3], in experiment [4], in experiment [5] and in experiment [6] was over 100 µM each time. Further, the TGI in experiment [7], in [8] and in experiment [9] was over 100 µM in each case.

As to `Cc1ccc(NC(=O)CC(=O)n2nc(-c3ccccc3)c(N=Nc3ccc(Cl)cc3)c2-c2ccccc2)cc1`, the TGI in [1] was 33.8 µM; in [2] it was 60.6 µM; in experiment [3] it was over 100 µM; in experiment [4] it was 70.9 µM; in experiment [5], 31 µM; in experiment [6], 72 µM. Further, the TGI in experiment [8] and in [9] was over 100 µM in each case.

Take `C/C(=N\NC(=O)CC(=O)Nc1ccc(Cl)cc1)c1cc2ccccc2oc1=O`: the TGI in [1], in experiment [2], in [3], in experiment [4], in [5] and in experiment [6] was over 100 µM in each case. In addition, the TGI in experiment [7], in experiment [8] and in experiment [9] was over 100 µM each time.

`Cc1ccc(NS(=O)(=O)c2cc(C(C)(C)C)ccc2OCCOCCOCCOc2ccc(C(C)(C)C)cc2S(=O)(=O)Nc2ccc(C)cc2)cc1`: the TGI in experiment [1], in experiment [2], in [3], in [4], in experiment [5] and in experiment [6] was over 100 µM in each case. The TGI in experiment [7], in experiment [8] and in experiment [9] was over 100 µM in each case.

Consider `O=C(CC/C(C/C(=N/O)c1ccc(F)cc1)=N/O)N(Cc1ccccc1)Cc1ccccc1`, for which the TGI in experiment [1], in experiment [2], in [3], in experiment [4], in experiment [5] and in experiment [6] was over 100 µM each time. The TGI in [7], in experiment [8] and in experiment [9] was over 100 µM in each case.

As for `CC1=C(C(=O)Nc2ccccc2C)C(c2ccc([N+](=O)[O-])cc2)C(C(=O)Nc2ccccc2C)=C(C)N1`, the TGI in experiment [2] was over 100 µM; in experiment [3] it was over 100 µM; in [4], 86.5 µM; in experiment [5], over 100 µM; in experiment [6] it was over 100 µM; in experiment [7] it was over 100 µM. Moreover, the TGI in experiment [8] and in experiment [9] was over 100 µM throughout.

Turning to `CCCCCCCCCCCCCC/C(C(=O)OC)=C(/O)C(=O)OCC`, the TGI in [1] was over 100 µM; in experiment [2], over 100 µM; in experiment [3], 50.8 µM; in experiment [4] it was over 100 µM; in experiment [5], over 100 µM; in experiment [6], over 100 µM. Moreover, the TGI was 69.4 µM in experiment [7], over 100 µM in experiment [8] and 53.5 µM in [9].

`COC(=O)c1c2c(c(C)[n+]([O-])c1C)C(=O)C=C(NCc1cccc(OC)c1)C2=O`: the GI50 in [2] is 0.29 µM; in experiment [4], 1.64 µM; in experiment [10], 0.561 µM; in experiment [5], 0.318 µM; in experiment [7], 0.646 µM; in experiment [8], 0.254 µM. Further, the GI50 in [9] is 1.13 µM. The TGI in [2] was 1.4 µM; in [4], 3.01 µM; in [10], 8.11 µM; in experiment [5], 1.26 µM; in experiment [7], 2.08 µM; in experiment [8], 0.786 µM. Besides, the TGI in experiment [9] was found to be 2.44 µM.

As for `O=S(=O)(NC(=S)Nc1ccccc1)c1ccc(N2N=C3c4ccccc4CC3C2c2cccs2)cc1` (stereo unspecified), the GI50 in experiment [1] was 15.1 µM; in [2], 39 µM; in [3], 53.8 µM; in experiment [4], 71.9 µM; in experiment [5], 30 µM; in experiment [6], 12.2 µM. The results for the GI50 in [7], in experiment [8] and in experiment [9] were 26.2 µM, 29.1 µM and 51.2 µM, respectively. Besides, the TGI in [1] is 34.8 µM; in experiment [2], over 100 µM; in [3], over 100 µM; in [4] it was over 100 µM; in experiment [5], over 100 µM; in experiment [6], 39.7 µM. Besides, the TGI in experiment [7] is 76.7 µM; in [8], 79.9 µM; in experiment [9], over 100 µM.

Turning to `CC(=O)NNc1nc(C)c(C(/C=C/c2ccc(Cl)cc2)=N\NS(=O)(=O)c2ccc(C)cc2)s1`, the TGI in experiment [1], in [2], in experiment [3], in experiment [4], in experiment [5] and in experiment [6] was over 100 µM throughout. Further, the TGI in experiment [7], in experiment [8] and in [9] was over 100 µM in each case.

In the case of `CC1C=C(OC(=O)c2ccccc2)C(=O)C(n2cc(F)c(=O)n(C(=O)c3ccccc3)c2=O)O1` (stereo unspecified), the TGI in experiment [1] is over 100 µM; in experiment [2], over 100 µM; in experiment [3], over 100 µM; in experiment [4] it was 91.9 µM; in [5], 96.6 µM; in experiment [6] it was over 100 µM. In addition, the TGI in experiment [7], in [8] and in experiment [9] was over 100 µM in each case.

With `CCC(=O)OC1CCn2c1nc1c2C(=O)C(C)=C(N2CC2)C1=O` (stereo unspecified), the GI50 is 0.0229 µM in [1]; 0.0327 µM in experiment [2]; 0.0368 µM in experiment [3]; 0.0223 µM in experiment [4]; 0.0248 µM in [5]; 0.496 µM in experiment [6]. The GI50 in experiment [7] is 0.0733 µM; in [8], 0.0261 µM. For the same molecule, the TGI is 0.779 µM and 0.409 µM in [1]; 0.338 µM and 0.211 µM in experiment [2]; 0.318 µM and 0.215 µM in experiment [3]; 0.0957 µM and 0.0544 µM in [4]; 0.244 µM and 0.13 µM in experiment [5]; 0.484 µM and 0.576 µM in experiment [7]. The TGI in experiment [8] is 0.0629 µM and 0.152 µM; in experiment [9] it was 0.136 µM.

As for `O=C1C(Cl)=C(Nc2ccc3cn[nH]c3c2)C(=O)c2ccccc21`, the GI50 in experiment [1] was 1.43 µM; in experiment [2], 1.52 µM; in experiment [3] it was 1.65 µM; in experiment [4] it was 1.67 µM; in [5], 1.36 µM; in experiment [6], 3.79 µM. Moreover, the results for the GI50 in experiment [7], in experiment [8] and in experiment [9] were 1.31 µM, 1.66 µM and 1.25 µM, respectively. The TGI in [1] turned out to be 2.78 µM; in experiment [2], 3.01 µM; in experiment [3], 3.01 µM; in [4] it was 3.03 µM; in experiment [5] it was 2.95 µM; in [6], 8.06 µM. Also, the TGI in experiment [7] was 2.58 µM; in [8], 3.06 µM; in experiment [9] it was 2.51 µM.

`O=C(O)CCC1COc2ccccc2O1` (stereo unspecified): the TGI in experiment [1], in experiment [2], in [3], in experiment [4], in experiment [5] and in [6] was over 10 µM in each case. Besides, the TGI in experiment [7], in experiment [8] and in experiment [9] was over 10 µM in each case.

`COC(=O)C1=C(C(=O)OC)C23C=CC=CC24C(C(=O)OC)=C(C(=O)OC)C4C1C3` (stereo unspecified): the TGI was over 100 µM in experiment [1]; over 100 µM in [2]; over 100 µM in [3]; 9.08 µM in experiment [4]; over 100 µM in experiment [5]; over 100 µM in experiment [6]. In addition, the TGI in experiment [7], in experiment [8] and in experiment [9] was over 100 µM in each case.

In the case of `N#C/C(=C\c1ccc(Br)cc1)n1nnc2cccc(F)c21`, the GI50 in experiment [2] was 2.59 µM; in experiment [3], 1.87 µM; in experiment [4] it was 1.41 µM; in experiment [5], 0.475 µM; in [6], 1.91 µM; in [7], 1.55 µM. Moreover, the GI50 is 1.86 µM in experiment [8] and 1.41 µM in experiment [9]. Further, the TGI stood at 13.6 µM in experiment [2]; 3.97 µM in experiment [3]; 2.87 µM in [4]; 1.94 µM in experiment [5]; 3.55 µM in [6]; 3.06 µM in [7]. Also, the TGI in experiment [8] is 5.43 µM; in [9], 2.72 µM.

Regarding `COc1cc2c3c(n(CCCN4CCN(C)CC4)c(=O)c2cc1OC)-c1cc2c(cc1C3=O)OCO2`, the GI50 in [1] is 1.49 µM; in experiment [2], 18.1 µM; in [3], 16.5 µM; in experiment [4], 16 µM; in experiment [5], 11.2 µM; in [6], 17.1 µM. Also, the GI50 in experiment [7] was 11.4 µM; in experiment [8], over 100 µM; in experiment [9], 20.6 µM. Further, the TGI in experiment [1] came to 11.5 µM; in experiment [2], 46.5 µM; in experiment [3], 43.2 µM; in experiment [4], 36 µM; in [5], 54.1 µM; in [6], 31.9 µM. The TGI in [7] was 27.5 µM; in [8] it was over 100 µM; in experiment [9] it was 62.8 µM.

Consider `O=c1cccc(C#Cc2ccccc2)o1`, for which the GI50 was 2.8 µM in experiment [1]; over 22.8 µM in [2]; 15 µM in [3]; 42.3 µM in [4]; 4.85 µM in [5]; 6.06 µM in experiment [6]. The GI50 in [7] was 9.2 µM; in experiment [8], 7.74 µM; in experiment [9], 3.41 µM. Moreover, the TGI in [1] was 26.2 µM; in experiment [2] it was over 100 µM; in [3], 40.2 µM; in [4], over 100 µM; in experiment [5], 43.3 µM; in experiment [6] it was 22.7 µM. For the same molecule, the values for the TGI in experiment [7], in experiment [8] and in experiment [9] were over 36.4 µM, 22.4 µM and over 35.1 µM, respectively.

With `NC1=NC(c2ccccc2)N=C(Nc2ccccc2)N1` (stereo unspecified), the GI50 in experiment [1] was over 100 µM; in experiment [2], over 100 µM; in experiment [3] it was over 100 µM; in [4], 34.8 µM; in [5], over 100 µM; in experiment [6], over 100 µM. The GI50 in [7] was 42.1 µM; in experiment [8], over 100 µM. Also, the TGI in experiment [1], in [2], in experiment [3], in experiment [4], in [5] and in experiment [6] was over 100 µM each time. The TGI in experiment [7] and in experiment [8] was over 100 µM each time.
